A word on the ED50: it is the midpoint of the dose-response relation.

SMILES strings stand for the structures.

In test [1] the target is T1, angiotensin converting enzyme (Rattus norvegicus, UniProt P47820).
T1 construct: rat plasma containing angiotensinogen, renin and converting enzyme in physiological amounts; from tissue; host or cells: rat plasma
T1 sequence (P47820 36-1238 limits assumed): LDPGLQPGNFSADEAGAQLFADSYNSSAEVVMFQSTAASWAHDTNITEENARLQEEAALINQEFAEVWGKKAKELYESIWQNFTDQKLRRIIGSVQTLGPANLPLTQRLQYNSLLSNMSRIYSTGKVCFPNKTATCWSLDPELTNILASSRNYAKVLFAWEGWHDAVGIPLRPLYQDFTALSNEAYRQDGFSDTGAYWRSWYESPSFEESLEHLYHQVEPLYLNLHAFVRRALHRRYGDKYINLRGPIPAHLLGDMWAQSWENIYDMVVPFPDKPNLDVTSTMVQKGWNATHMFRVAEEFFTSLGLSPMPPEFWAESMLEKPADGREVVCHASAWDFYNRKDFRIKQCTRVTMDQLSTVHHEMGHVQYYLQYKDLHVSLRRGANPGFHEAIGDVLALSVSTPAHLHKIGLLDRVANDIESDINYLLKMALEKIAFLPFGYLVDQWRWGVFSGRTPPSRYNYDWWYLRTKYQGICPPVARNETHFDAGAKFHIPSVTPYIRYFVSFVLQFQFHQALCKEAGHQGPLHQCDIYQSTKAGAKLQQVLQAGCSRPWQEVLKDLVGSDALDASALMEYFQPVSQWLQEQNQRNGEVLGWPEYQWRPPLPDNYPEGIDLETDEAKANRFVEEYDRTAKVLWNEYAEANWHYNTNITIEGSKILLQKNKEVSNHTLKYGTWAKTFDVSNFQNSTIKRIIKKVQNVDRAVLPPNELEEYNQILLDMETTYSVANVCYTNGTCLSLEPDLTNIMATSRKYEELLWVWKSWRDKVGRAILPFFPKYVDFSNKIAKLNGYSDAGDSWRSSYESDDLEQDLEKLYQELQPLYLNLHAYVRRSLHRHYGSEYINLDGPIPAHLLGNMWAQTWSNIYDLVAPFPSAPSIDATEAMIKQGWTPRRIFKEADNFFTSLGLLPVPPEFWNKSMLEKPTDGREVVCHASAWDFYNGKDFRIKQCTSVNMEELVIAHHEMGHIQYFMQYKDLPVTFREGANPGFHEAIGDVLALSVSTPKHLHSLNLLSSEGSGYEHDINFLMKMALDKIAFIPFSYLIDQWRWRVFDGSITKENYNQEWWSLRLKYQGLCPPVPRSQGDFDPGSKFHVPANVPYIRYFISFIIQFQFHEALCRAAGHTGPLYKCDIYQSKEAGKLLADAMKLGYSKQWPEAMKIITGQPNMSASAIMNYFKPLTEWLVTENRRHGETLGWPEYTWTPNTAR
Nature of the test: in vitro radioimmunoassay of angiotensin-II generation in rat plasma (converting enzyme inhibition). In kind it is biochemical. The following applies: 37° C., 30 minutes, angiotensin-II antibody trapping, read-out: IC50 (concentration at which a 50% inhibition of formation of angiotensin-II with respect to the control occurs) (converted).
Description: The in vitro activity was determined by a radioimmuno-assay carried out using the methodology illustrated by K. Poulsen in J. Lab. […] More particularly, the in vitro activity was quantitatively evaluated by following the procedure described below:
50 μl of rat plasma containing angiotensinogen, renin and converting enzyme in physiological amounts, but deprived of endogenous angiotensin-I and angiotensin-II, and 10 μl of angiotensin-II antibody in dilution (1:120) were incubated in a tube at 37° C. for 30 minutes.
During this enzymatic incubation in the absence of converting enzyme inhibitors, angiotensin-II which forms is then transformed into angiotensin-II by the action of converting enzyme and the angiotensin-II antibody which is present in the incubate, then captures and traps it, thus preserving angiotensin-II from the degrading action of plasmatic angiotensinases. Incubation was terminated by placing the tube at 0° C. and the amount of angiotensin-II formed and captured by the antibody was measured by radioimmunoassay (see K. Poulsen and J. Jorgensen J. Clin. Endocrinol. Metab. 39, 816-825 (1974). […]
As said above, the amount of captured angiotensin-II, was determined by a radioimmunological assay. […] After centrifugation at 3000×g for 30 minutes the supernatant which contains the antibody-bound angiotensin-II, was decanted in counting tubes and each sample was then counted.
For calculation of generated angiotensin-II from the amount of antibody-bound labeled angiotensin-II, an angiotensin-II standard curve was constructed using 50 μg of standard angiotensin-II (containing zero to 7.5 pg of angiotensin-II) and 10 μl of angiotensin-II antibody in dilution (1:120). […] By plotting the amounts of antibody-bound labeled angiotensin-II versus the known amounts of angiotensin-II initially present, a standard curve can be constructed, which allow a direct correlation between the amount of antibody-bound labeled angiotensin-II determined in each test and the amount of generated angiotensin-II.

Test [2] deals with T2, angiotensin converting enzyme (Rattus norvegicus, UniProt P47820).
T2 construct: confirmed also in vivo by means of an experiment performed on normotensive rats; from tissue; host or cells: anesthetized normotensive rats (whole animal)
T2 sequence (P47820 36-1313): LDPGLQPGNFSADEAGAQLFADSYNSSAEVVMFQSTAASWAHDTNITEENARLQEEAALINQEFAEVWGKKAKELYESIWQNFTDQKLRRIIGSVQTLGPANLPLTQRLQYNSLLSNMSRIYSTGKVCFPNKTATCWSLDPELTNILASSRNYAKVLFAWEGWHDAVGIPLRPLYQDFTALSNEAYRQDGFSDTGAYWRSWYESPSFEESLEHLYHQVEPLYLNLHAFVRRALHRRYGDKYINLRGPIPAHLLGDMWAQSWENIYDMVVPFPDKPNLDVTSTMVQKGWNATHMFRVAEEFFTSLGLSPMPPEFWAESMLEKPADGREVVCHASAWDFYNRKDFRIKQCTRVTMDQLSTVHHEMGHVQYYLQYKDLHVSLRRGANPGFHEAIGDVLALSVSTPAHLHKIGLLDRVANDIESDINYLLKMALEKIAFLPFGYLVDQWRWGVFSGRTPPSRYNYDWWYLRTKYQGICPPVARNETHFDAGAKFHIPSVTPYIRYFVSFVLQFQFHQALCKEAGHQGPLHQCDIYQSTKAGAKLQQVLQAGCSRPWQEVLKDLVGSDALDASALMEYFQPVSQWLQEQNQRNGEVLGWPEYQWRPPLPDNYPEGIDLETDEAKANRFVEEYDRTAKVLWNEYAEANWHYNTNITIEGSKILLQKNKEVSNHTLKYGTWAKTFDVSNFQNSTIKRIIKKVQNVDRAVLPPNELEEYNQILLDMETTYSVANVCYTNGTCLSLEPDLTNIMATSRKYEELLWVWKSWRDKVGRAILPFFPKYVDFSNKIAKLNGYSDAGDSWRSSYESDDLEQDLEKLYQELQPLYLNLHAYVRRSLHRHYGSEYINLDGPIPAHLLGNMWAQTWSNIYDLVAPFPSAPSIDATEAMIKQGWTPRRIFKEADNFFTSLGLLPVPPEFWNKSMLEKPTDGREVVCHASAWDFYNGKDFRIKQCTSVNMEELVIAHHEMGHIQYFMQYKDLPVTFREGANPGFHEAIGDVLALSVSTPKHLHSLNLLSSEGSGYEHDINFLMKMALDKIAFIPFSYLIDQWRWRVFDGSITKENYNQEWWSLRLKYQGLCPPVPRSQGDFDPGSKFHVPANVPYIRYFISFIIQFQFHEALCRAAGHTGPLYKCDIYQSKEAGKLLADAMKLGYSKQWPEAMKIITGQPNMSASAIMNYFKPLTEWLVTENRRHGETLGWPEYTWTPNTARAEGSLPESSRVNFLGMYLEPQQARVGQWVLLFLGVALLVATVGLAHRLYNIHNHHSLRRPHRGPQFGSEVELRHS
In words: inhibition of the pressure increase induced by angiotensin-I in anesthetized normotensive rats. In kind it is in vivo. The conditions noted are these: normotensive rats anesthetized with nembuthal, angiotensin-I 0.1 μg/Kg, generally 15 minutes after test compound. On the procedure: The experiment was carried out simultaneously with the above one and under the same conditions.
The basal pressure value for each rat was recorded, then doses of 0.1 μg/Kg of body weight of angiotensin-I were injected through the jugular catheter. […] From these values and the basal ones the pressure increase induced by angiotensin-I in each rat was calculated.
The percentages of inhibition of the pressure increase induced by angiotensin-I by different doses of test compounds were easily calculated and for each dose a single value, averaged on the three animals of the group was considered. By plotting the concentrations of test compound on a logarithmic scale versus the percent inhibitory effects, a linear correlation was established which allowed the calculation of the ED50, i.e. the dose of test compound which inhibits by 50% the pressure increase induced by angiotensin-I.

For the compound `O=C(O)[C@@H]1CCCN1C(=O)C1CCCC1S` (single isomer, unassigned) [Example 6A, 1-[(2-mercaptocyclopentyl)carbonyl]-L-proline], the IC50 in test [1] was 863 nM.

As for `O=C(SC1CCCC1C(=O)N1CCC[C@H]1C(=O)O)c1ccccc1` (single isomer, unassigned) [Example 5B, 1-[(2-benzoylthiocyclopentyl)carbonyl]-L-proline], the IC50 in test [1] was 662 nM. For `O=C(O)[C@@H]1CCCN1C(=O)C1CCCC1S` (stereo partly drawn) [Example 2, 1-[(2-mercaptocyclopentyl)carbonyl]-L-proline], the IC50 in test [1] is 2340 nM. Besides, the ED50 in test [2] (rat, iv, 0.25 h, read-out: ED50 (dose which inhibits by 50% the pressure increase induced by angiotensin-I)) was found to be 2.3 mg/kg. Turning to `O=C(O)[C@@H]1CCCN1C(=O)C1CCCC1S` (stereo partly drawn) [Example 6B, 1-[(2-mercaptocyclopentyl)carbonyl]-L-proline], the “ED50 (dose which inhibits by 50% the pressure increase induced by angiotensin-I)” value in test [2] (intravenous, 15 min) stood at 1.8 mg/kg.

The values are drawn from US4385062A, “1-[(-2-Mercaptocycloalkyl)carbonyl]-L-proline derivatives, the process for their manufacture, the intermediates for their synthesis and their use as anti-hypertensive agents” (Gruppo Lepetit S.p.A., priority 1980, dated 1983).
